Tests used:
[1] = test system: rats; experiment: Shock induced by bolus injection of pancreatic homogenate, with or without ANGD infusion; assay type: in vivo, rat; conditions: one hour i.v. pretreatment 3.3 mg/kg body wt per hour, then pancreatic homogenate bolus
Protocol: Rats were cannulated via the femoral arteries and veins under general anesthesia (pentobarbital, 50 mg/kg i.m.) and saline, without or with ANGD, was infused to examine the response of the circulation after administration of pancreatic homogenate. The arterial catheter served to record mean arterial pressure (MAP) and heart rate. […] No heparin was injected other than that needed to maintain open catheters (10 U/ml Plasma-Lyte, Travenol Laboratory Inc., Deerfield, Ill.). After a one hour pretreatment, a bolus injection of filtered (0.78 μm vacuum filter, Millipore) stock pancreatic homogenate was administered (2 ml). The extent to which pancreatic homogenate induced hypotension and circulatory shock, both in the presence and absence of ANGD, was examined.

[2] = test system: Human neutrophils (PMNs); experiment: Neutrophil activation (pseudopod formation) by pancreatic homogenate prepared with protease inhibitors; assay type: cell-based; conditions: for ability of the homogenate to stimulate neutrophil activation: pancreas homogenized in the presence of protease inhibitor
Protocol: The organs were immediately washed in cold 0.25 M sucrose solution, homogenized in Krebs-Henseleit solution (1:3 w/v), and the homogenate was diluted (1:2 v/v Krebs-Henseleit), following the protocol established by Glen and Lefer (Circ. Res., 1971). This homogenate served as the stock solution for all experiments. Aliquots were heated for 2.5 hours at 38° C. with mild stirring and the supernatant collected after centrifugation at 500 g for 10 min. Incubation of tissue homogenates at 38° C. promotes enzymatic activity and enhances production of the cellular activation factors.
Neutrophils were isolated from venous blood collected from healthy human volunteers in heparinized vacutainer tubes and stored at 4° C. Human neutrophils (PMNs) were used in these studies after it was shown in pilot studies that the rat organ extracts stimulated activation of both human and rat neutrophils to a similar degree.
Neutrophil isolation was carried out using gravity sedimentation to remove erythrocytes and centrifugation through a Percoll gradient. Isolated neutrophils were resuspended in PBS to achieve a count of 10^6 neutrophils/ml. 100 μl aliquots of suspended neutrophils were added to 100 μl of activating agent (e.g. tissue homogenate) or PBS as a control, and incubated for 10 minutes at 27° C. After incubation, 100 μl of 3% glutaraldehyde (Fisher Scientific, Fair Lawn, N.J.) was added to fix the cells. 100 μl of crystal violet in phosphate (pH: 7.4) buffer was added to label leukocyte nuclei for identification on wet mount preparations. Freely suspended neutrophils with pseudopodia were identified by their segmented nuclei and by the presence of cytoplasmic granules. One hundred neutrophils were counted per slide. Cells having pseudopod projections greater than about 1 μm were considered positive.
To determine if pancreatic homogenates could induce a “systemic response” in vitro, non-pancreatic tissues were incubated with substimulatory quantities of pancreatic homogenate (100 μl pancreatic homogenate/3 ml organ homogenate). […] As the pancreas produces a number of digestive enzymes, including proteases, a cocktail of trypsin and chymotrypsin was added to non-pancreatic tissue and the neutrophil activation assays were performed.

[3] = test system: serine protease; experiment: Serine protease activity of intestinal fluid during intestinal perfusion and splanchnic ischemia; assay type: in vivo, rat; conditions: intestinal perfusion 0.2 mg/ml
Protocol: (§1) The small intestine of rats was perfused at a constant flow rate (4.0 ml/min) with 45 ml of rat intestinal fluid supplemented with 5 ml of 5% glucose (IF) or 50 ml of saline with 0.1% glucose (SAL) or with ANDG at a final concentration of 0.2 mg/ml. The perfusate was recirculated continuously throughout the entire procedure. After 15 min of intestinal perfusion, the animals were subjected to […]. of splanchnic ischemia, which was confirmed by cyanotic organ discoloration and loss of the pressure pulsation in the mesentery.
The process of shock was monitored by a number of methods in various tissues throughout the body. Intestinal fluid was analyzed for serine protease activity. One milliliter of circulating fluid in the intestine was collected from the reservoir before ischemia and 90 min after ischemia. […] After 90 min of ischemia, the serine protease activity levels in the IF, SAL, and ANGD groups were 5.6±2.3×10^3 units/ml, 3.3±2.3×10^3 units/ml, and 1.2±0.2×10^3 units/ml, respectively. Intestinal perfusion with ANGD kept the serine protease activity lower than in the other two groups (p<0.05, SAL vs. ANGD; p<0.01 ANGD vs. IF and SAL groups).

[4] = test system: rats; experiment: Splanchnic ischemia/reperfusion shock with perfusion of the lumen of the small intestine; assay type: in vivo, rat
Protocol: as §1
Arterial and portal venous blood (0.3 ml each) were sampled before ischemia, after 90 min of ischemia, and 30, 60, and 120 min postreperfusion. The samples were analyzed for leukocyte count and activation based on crystal violet staining. In the preischemic period, the leukocyte counts were the same in all three groups. In the IF And SAL groups, the leukocyte count in arterial blood started to decrease after ischemia and reached its lowest value 120 min after reperfusion. […] Similarly, ANGD was able to inhibit the activation of circulating neutrophils (15.0±1.6%) as compared to both IF (23.3±1.0%, p<0.05) and SAL (25.0±1.6%, p<0.05) at 120 minutes post-perfusion.
Myeloperoxidase activity was used as a marker for assessment of leukocyte infiltration into the small intestine, liver, and lung. Tissue myeloperoxidase levels were determined by a spectrophotometric method. At 120 minutes of reperfusion, myeloperoxidase levels were increased in intestine (36.1±3.9 U/g to 309.3±51.0 U/g), liver (0.4±0.1 U/g to 2.6±0.3 U/g), and lung (29.0±4.4 U/g to 199.2±33.9 U/g). This is an early indicator of leukocyte infiltration and organ failure in shock.
Thickness of the intestinal mucosa was used as an indicator of damage to the intestine. A sample of small intestine was longitudinally dissected, fixed in 10% buffered formalin, and embedded in paraffin. Five-micrometer sections were made and stained with hematoxylin and eosin and examined at 200× magnification. Severity of intestinal injury was estimated by the length between the tip of the villi and the musculus mucosae, a measure of mucosal layer thickness. In each specimen, the measurement was made at 10 randomly selected locations and averaged. Intestinal perfusion of protease inhibitor served to maintain mucosal thickness and to reduce intestinal injury (IF 252.0±34.0 […]).
The level of edematous lung injury was assayed by a pulmonary wet/dry ratio. Lung lobes were harvested, wet weight was determined and samples were dried at 70° C. for 72 hours. The dried tissue was weighed, and the ratio of wet to dried weight was calculated. Edema was much greater in the IF (5.65±0.33) and SAL (4.88±0.39) groups as compared to the ANGD (3.66±0.27) group which was similar to non-shock controls.

Row | SMILES | death within the 60 minute post-injection observation period [1] | time for MAP and heart rate to return to normal levels [1] [min] | neutrophil activation ([2]; pancreas homogenized in presence of inhibitor, untreated extract 59±10%) [%] | ability of the homogenate to stimulate neutrophil activation [2] | serine protease activity level in the intestine ([3]; after 90 min of ischemia, IF 5.6±2.3×10^3, SAL 3.3±2.3×10^3) | serine protease activity level in the intestine ([3]; before ischemia, IF=5.8±1.8×10^3, SAL=2.0±0.9×10^3) | myeloperoxidase activity in liver ([4]; 120 minutes of reperfusion, without inhibitor 2.6±0.3 U/g) [U/g] | myeloperoxidase activity in lung ([4]; 120 minutes of reperfusion, without inhibitor 199.2±33.9 U/g) [U/g] | myeloperoxidase activity in intestine ([4]; 120 minutes of reperfusion, without inhibitor 309.3±51.0 U/g) [U/g] | activation of circulating neutrophils ([4]; 120 minutes post-perfusion, IF 23.3±1.0%, SAL 25.0±1.6%) [%] | pulmonary wet/dry ratio (edematous lung injury) ([4]; IF 5.65±0.33, SAL 4.88±0.39) | leukopenia (leukocyte count in arterial blood) ([4]; intestinal perfusion 0.2 mg/ml, after ischemia up to 120 min after reperfusion) | mucosal thickness (tip of the villi to musculus mucosae) ([4]; small intestine, IF 252.0±34.0) [µm]
1 | N=C(N)c1ccc2cc(OC(=O)c3ccc(N=C(N)N)cc3)ccc2c1 [ANGD, 6-amidino-2napthyl p-guanidobenzoate dimethane-sulfate] | none of these animals died | ≤ 20 | 9±12 | significantly decreased | 1.2±0.2×10^3 units/ml | 1.2±0.1×10^3 units/ml | 1.0±0.1 | 87.0±13.4 | 62.5±19.8 | 15.0±1.6 | 3.66±0.27 | completely ameliorated leukopenia | 378 ± 38
2 | CCOC(=O)c1ccc(OC(=O)CCCCCN=C(N)N)cc1.CS(=O)(=O)O [FOY, gabaxalate mesilate] | – | – | – | significantly decreased | – | – | – | – | – | – | – | – | –
3 | O=S(=O)(F)Cc1ccccc1 [PMSF, phenylmethylsulfonylfluoride] | – | – | – | significantly decreased | – | – | – | – | – | – | – | – | –

Reference: US6534283B1, “Method for treatment and prevention of physiological shock” (The Regents of the University of California, priority 1999, dated 2003)
